{"source": "paper PMC5866837", "about": "“Towards a generic physiologically based kinetic model to predict in vivo uterotrophic responses in rats by reverse dosimetry of in vitro estrogenicity data” (Archives of Toxicology, 2017)", "key": {"human ERs": {"test_system": "human ERs", "design": "method as in Kolle et al. [2010]; Wang et al. [2014]", "conditions": "ref Kolle et al. [2010]; Wang et al. [2014]; cited from earlier work"}, "uterus weight in rats [1]": {"test_system": "uterus weight in rats", "conditions": "oral gavage, cited from earlier work"}, "uterus weight in rats [2]": {"test_system": "uterus weight in rats", "test": "In vivo uterotrophic assay and BMD analysis (PROAST) of its data", "design": "species or system rat", "conditions": "for BMD (BMD10) / BMDL (BMDL10) / BMDU (BMDU10): PROAST exponential model, BMR 10%, absolute uterus weight; for BMDL (BMDL10) / BMDU (BMDU10): in mg/kg", "description": "To that end, a literature research was performed using the search terms uterotrophic assay, rats, oral administration.\nFurthermore, benchmark dose (BMD) values derived from the predicted dose–response data were compared with BMD values derived from the dose–response data from the uterotrophic assay as reported in the literature. To that end, BMD modelling was applied on dose–response data using the exponential model for continuous data of the PROAST software from The National Institute for Public Health and the Environment of the Netherlands (RIVM) version 38.9 (Slob [2002]). The benchmark response (BMR) was defined as a 10% increase of response change compared to the control. The predicted dose level with an estimated 10% extra risk obtained is shown as BMD10. The lower and upper limits of the 95% confidence interval on the BMD10 are defined as BMDL10 and BMDU10. In PROAST, BMD values are only reported if the model fit of the data is accepted, so when the software provided BMD values, it was assumed that the data had been adequately modelled. […] For in vivo studies, the absolute uterus weight values were used as input for the response in the continuous model."}, "[3]": {"design": "method as in Hansch et al. [1995]", "conditions": "ref Hansch et al. [1995]; cited from earlier work"}, "[4]": {"conditions": "rat, oral, read-out: In vivo C max, cited from earlier work"}, "[5]": {"test": "Rapid equilibrium dialysis (RED), fraction unbound in in vitro assay medium", "assay_type": "in vitro ADME", "conditions": "bovine, assay medium with 5% FCS, RED 5 h at 37 °C, read-out: f ub (fraction unbound)", "description": "(§1) The assay medium used in the ER-CALUX and the proliferation assay contains 5% FCS, so the RED assay was performed using the assay medium for these two assays and for rat serum. The f ub was determined using the protocol described by Waters et al. ([2008]). The RED device insert has two chambers, a plasma and a buffer chamber. […] After incubating for 5 h at 37 °C at 250 rpm on an orbital shaker, the system reaches equilibrium (van […] et al. [2011]). 25 μL of post-dialysis samples were collected from the plasma and buffer chambers in separate tubes. Simultaneously, 25 μL of corresponding buffer (PBS) was added to the sample taken from the plasma chamber and the same volume of corresponding rat serum or in vitro medium was added to the sample taken from the buffer chamber. Then, 300 μL cold precipitation buffer (90/10 ACN/water) was added to both samples to precipitate the proteins and release the compound. The samples were put on ice for 30 min and subsequently centrifuged for 15 min at 15,000×g (CT 15RE, Hitachi Koki Co., Ltd). Then, the supernatants were collected for UPLC analysis. By determining the compound concentration in each chamber, the fraction unbound can be calculated with the following equation: f ub = concentration in buffer chamber/concentration in plasma chamber (van […] et al. [2011]; Waters et al. [2008]). […]"}, "[6]": {"test_system": "uterotrophic growth in rats", "test": "PBK modelling-based reverse dosimetry of YES assay data and BMD analysis", "design": "species or system rat", "source_text": "For each in vitro concentration–response dataset from the three assays, the PBK modelling-based reverse dosimetry approach was used to predict the dose levels that are required to reach concentrations in blood that were applied in these assays. As it is assumed that the fraction unbound (f ub) of the parent compound induces the toxicity, the possible difference in the f ub in the in vitro assay medium and in rat serum was corrected prior to applying reverse dosimetry. The f ub of E2 and BPA were determined for in vitro assay media and rat serum as described below. PBK modelling-based reverse dosimetry. […] Consequently, for reverse dosimetry, the in vitro unbound concentration (C ub, in vitro) was set equal to the unbound C max in blood (C ub, in vivo) to determine the dose that is required to cause an in vivo estrogenic effect. The C ub, in vitro was estimated based on the equation: C ub, in vitro = C in vitro × f ub, in vitro, where C in vitro is the nominal concentration applied in the in vitro assay and f ub, in vitro is the fraction unbound of the chemical in the in vitro assay medium as determined using the RED assay. The C ub, in vivo was estimated based on the equation: C ub, in vivo = C in vivo × f ub, in vivo, where C in vivo is the nominal blood concentration in rat and fub, in vivo is the fub in rat serum. Assuming that for the prediction of in vivo toxicity, the C ub, in vitro is the same as C ub, in vivo, the nominal blood concentration in rat can be described by the following equation: C in vivo = C ub, in vivo/f ub, in vivo = C ub, in vitro/f ub, in vivo = (C in vitro × f ub, in vitro)/fub, in vivo. By calculating with the PBK model which dose is required to reach a C in vivo, an in vitro concentration can be translated into an in vivo dose. Performing this exercise for all the concentrations applied in the in vitro assays, the in vitro concentration–response curves were translated into predicted in vivo dose–response curves. […]"}, "[7]": {"test": "Rapid equilibrium dialysis (RED), fraction unbound in rat serum", "assay_type": "in vitro ADME", "conditions": "RED 5 h at 37 °C, read-out: f ub (fraction unbound)", "description": "as §1"}, "[8]": {"conditions": "in vivo data of Kanno et al. 2003 (doses in mg/kg bw)"}, "[9]": {"conditions": "in vivo data of Tinwell and Ashby 2004 (doses in mg/kg bw)"}, "[10]": {"conditions": "in vivo data of Odum et al. 1997 (doses in mg/kg bw)"}}, "note": "Like-named read-outs stand apart in the source and are kept apart here. Marks after values point to notes of the source that are not given here."}
{"smiles": "CC(C)(c1ccc(O)cc1)c1ccc(O)cc1", "note": "[BPA, bisphenol A]", "values": [{"measurement": "Higher concentrations required for an estrogenic response in the YES assay than in MCF-7/BOS proliferation and U2OS ER-CALUX assays", "setting": "human ERs", "result": "3 orders of magnitude"}, {"measurement": "Mean value of uterus weight", "setting": "uterus weight in rats [1]; rat (AP), 10 mg/kg bw, ref Tinwell and Ashby 2004", "result": 23.9, "unit": "mg"}, {"measurement": "Mean value of uterus weight", "setting": "uterus weight in rats [1]; rat (AP), 100 mg/kg bw, ref Tinwell and Ashby 2004", "result": 29.0, "unit": "mg"}, {"measurement": "Mean value of uterus weight", "setting": "uterus weight in rats [1]; rat (AP), 300 mg/kg bw, ref Tinwell and Ashby 2004", "result": 38.5, "unit": "mg"}, {"measurement": "Mean value of uterus weight", "setting": "uterus weight in rats [1]; rat (AP), 600 mg/kg bw, ref Tinwell and Ashby 2004", "result": 41.4, "unit": "mg"}, {"measurement": "Mean value of uterus weight", "setting": "uterus weight in rats [1]; rat (AP), 800 mg/kg bw, ref Tinwell and Ashby 2004", "result": 59.0, "unit": "mg"}, {"measurement": "Mean value of uterus weight", "setting": "uterus weight in rats [1]; rat (Sprague–Dawley), 60 mg/kg bw, ref Kanno et al. 2003", "result": 26.8, "unit": "mg"}, {"measurement": "Mean value of uterus weight", "setting": "uterus weight in rats [1]; rat (Sprague–Dawley), 200 mg/kg bw, ref Kanno et al. 2003", "result": 30.1, "unit": "mg"}, {"measurement": "Mean value of uterus weight", "setting": "uterus weight in rats [1]; rat (Sprague–Dawley), 375 mg/kg bw, ref Kanno et al. 2003", "result": 30.4, "unit": "mg"}, {"measurement": "Mean value of uterus weight", "setting": "uterus weight in rats [1]; rat (Sprague–Dawley), 600 mg/kg bw, ref Kanno et al. 2003", "result": 37.0, "unit": "mg"}, {"measurement": "Mean value of uterus weight", "setting": "uterus weight in rats [1]; rat (Sprague–Dawley), 1000 mg/kg bw, ref Kanno et al. 2003", "result": 44.1, "unit": "mg"}, {"measurement": "Fold difference in BMD10 values between the two in vivo studies", "setting": "uterus weight in rats [2]; Kanno et al. 2003 vs Tinwell and Ashby 2004", "result": 25.8, "unit": "fold"}, {"measurement": "BMD (BMD10)", "setting": "uterus weight in rats [2]; [8]", "result": 207, "unit": "mg/kg"}, {"measurement": "BMDL (BMDL10)", "setting": "uterus weight in rats [2]; [8]", "result": 62.66}, {"measurement": "BMDU (BMDU10)", "setting": "uterus weight in rats [2]; [8]", "result": 516.80}, {"measurement": "BMD (BMD10)", "setting": "uterus weight in rats [2]; [9]", "result": 8.02, "unit": "mg/kg"}, {"measurement": "BMDL (BMDL10)", "setting": "uterus weight in rats [2]; [9]", "result": 1.00}, {"measurement": "BMDU (BMDU10)", "setting": "uterus weight in rats [2]; [9]", "result": 37.13}, {"measurement": "Log P ow", "setting": "[3]", "result": "3.3^a"}, {"measurement": "Cmax", "setting": "[4]; 10 mg/kg bw, ref Pottenger et al. (2000)", "result": 175, "unit": "nM"}, {"measurement": "Cmax", "setting": "[4]; 100 mg/kg bw, ref Pottenger et al. (2000)", "result": 9880, "unit": "nM"}, {"measurement": "fraction unbound at 5 h, 5 µM", "setting": "[5]", "result": "0.461 ± 0.035"}, {"measurement": "Predicted BMDL10 fold higher than BMDL10 of the in vivo data", "setting": "[6]; in vivo data from Tinwell and Ashby (2004)", "result": 4.7, "unit": "fold"}, {"measurement": "Predicted BMDL10 fold lower than BMDL10 of the in vivo data", "setting": "[6]; in vivo data of Kanno et al. (2003)", "result": 13.4, "unit": "fold"}, {"measurement": "fraction unbound at 5 h, 5 µM", "setting": "[7]", "result": "0.04 ± 0.001"}]}
{"smiles": "C[C@]12CC[C@@H]3c4ccc(O)cc4CC[C@H]3[C@@H]1CC[C@@H]2O", "note": "[E2, 17β-estradiol]", "values": [{"measurement": "Higher concentrations required for an estrogenic response in the YES assay than in MCF-7/BOS proliferation and U2OS ER-CALUX assays", "setting": "human ERs", "result": "2 orders of magnitude"}, {"measurement": "Mean value of uterus weight", "setting": "uterus weight in rats [1]; rat (AP), 0.01 mg/kg bw, ref Odum et al., 1997", "result": 37.5, "unit": "mg"}, {"measurement": "Mean value of uterus weight", "setting": "uterus weight in rats [1]; rat (AP), 0.02 mg/kg bw, ref Odum et al., 1997", "result": 39, "unit": "mg"}, {"measurement": "Mean value of uterus weight", "setting": "uterus weight in rats [1]; rat (AP), 0.04 mg/kg bw, ref Odum et al., 1997", "result": 38.3, "unit": "mg"}, {"measurement": "Mean value of uterus weight", "setting": "uterus weight in rats [1]; rat (AP), 0.10 mg/kg bw, ref Odum et al., 1997", "result": 68.1, "unit": "mg"}, {"measurement": "Mean value of uterus weight", "setting": "uterus weight in rats [1]; rat (AP), 0.20 mg/kg bw, ref Odum et al., 1997", "result": 70.9, "unit": "mg"}, {"measurement": "Mean value of uterus weight", "setting": "uterus weight in rats [1]; rat (AP), 0.40 mg/kg bw, ref Odum et al., 1997", "result": 101.7, "unit": "mg"}, {"measurement": "BMD (BMD10)", "setting": "uterus weight in rats [2]; [10]", "result": 0.0134, "unit": "mg/kg"}, {"measurement": "BMDL (BMDL10)", "setting": "uterus weight in rats [2]; [10]", "result": 0.002915}, {"measurement": "BMDU (BMDU10)", "setting": "uterus weight in rats [2]; [10]", "result": 0.03371}, {"measurement": "Log P ow", "setting": "[3]", "result": "4.0^a"}, {"measurement": "Cmax", "setting": "[4]; 0.02 mg/kg bw, ref Bawarshi-Nassar et al. (1989)", "result": 0.6, "unit": "nM"}, {"measurement": "Cmax", "setting": "[4]; 0.08 mg/kg bw, ref Bawarshi-Nassar et al. (1989)", "result": 2.7, "unit": "nM"}, {"measurement": "fraction unbound at 5 h, 5 µM", "setting": "[5]", "result": "0.628 ± 0.012"}, {"measurement": "Predicted BMDL10 lower than that of BPA", "setting": "[6]; YES assay-based prediction", "result": "4 orders of magnitude"}, {"measurement": "fraction unbound at 5 h, 5 µM", "setting": "[7]", "result": "0.05 ± 0.005"}]}
